What all share (format): cell-based
The test system of assay [1] is M. Smegmatis ATCC607. Put plainly: In-vitro anti-bacterial activity against strain M. smegmatis ATCC607. The conditions noted are these: Mycolicibacterium smegmatis. The protocol: Flat-bottom, sterile 96-well plastic microtiter plates were filled with 180 μl of sterile deionized water, supplemented with 0.25% BSA. Subsequently, stock solutions (7.8× final test concentration) of compounds were added in 45 μl volumes to a series of duplicate wells in column 2 so as to allow evaluation of their effects on bacterial growth. Serial five-fold dilutions (45 μl in 180 μl) were made directly in the microtiter plates from column 2 to 11 using a customised robot system (Zymark Corp., Hopkinton, Mass.). Pipette tips were changed after every 3 dilutions to minimize pipetting errors with high hydrophobic compounds. Untreated control samples with (column 1) and without (column 12) inoculum were included in each microtiter plate. Approximately 250 CFU per well of bacteria inoculum, in a volume of 100 μl in 2.8× Mueller-Hinton broth medium, was added to the rows A to H, except column 12. The same volume of broth medium without inoculum was added to column 12 in row A to H. The cultures were incubated at 37° C. for 48 hours in a humidified 5% CO2 atmosphere (incubator with open air valve and continuous ventilation). At the end of incubation, two days after inoculation, the bacterial growth was quantitated fluorometrically. Therefore Alamar Blue (10×) was added to all wells in a volume of 20 μl and plates were incubated for another 2 hours at […]
The fluorescence was read in a computer-controlled fluorometer (Cytofluor, Biosearch) at an excitation wavelength of 530 nm and an emission wavelength of 590 nm (gain 30).

For assay [2], the system named is Staphylococcus aureus (ATCC29213). Put plainly: Microtitre plate assay, IC90 determination, STA 29213. On the procedure: (§1) The bacteria used in this study were grown overnight in flasks containing 100 ml Mueller-Hinton Broth (Becton Dickinson—cat. no. 275730) in sterile de-ionized water, with shaking, at 37° C. Stocks (0.5 ml/tube) were stored at −70° C. until use. Bacteria titrations were performed in microtiter plates to detect the TCID50, in which the TCID50 represents the dilution that gives rise to bacterial growth in 50% of inoculated cultures.
(§2) In general, an inoculum level of approximately 100 TCID50 was used for susceptibility testing.
(§3) Flat-bottom, sterile 96-well plastic microtiter plates were filled with 180 μl of sterile deionized water, supplemented with 0.25% BSA. Subsequently, stock solutions (7.8× final test concentration) of compounds were added in 45 μl volumes in column 2 Serial five-fold dilutions (45 μl in […]) were made directly in the microtiter plates from column 2 to reach column 11. Untreated control samples with (column 1) and without (column 12) inoculum were included in each microtiter plate. Depending on the bacteria type, approximately 10 to 60 CFU per well of bacteria inoculum (100 TCID50), in a volume of 100 μl in 2.8× Mueller-Hinton broth medium, was added to the rows A to H, except column 12. The same volume of broth medium without inoculum was added to column 12 in row A to H. The cultures were incubated at 37° C. for 24 hours under a normal atmosphere (incubator with open air valve and continuous ventilation). At the end of incubation, one day after inoculation, the bacterial growth was quantitated fluorometrically. Therefore resazurin (0.6 mg/ml) was added in a volume of 20 μl to all wells 3 hours after inoculation, and the plates were re-incubated overnight. A change in colour from blue to pink indicated the growth of bacteria. The fluorescence was read in a computer-controlled fluorometer (Cytofluor Biosearch) at an excitation wavelength of 530 nm and an emission wavelength of 590 nm. The % growth inhibition achieved by the compounds was calculated according to standard methods.

Assay [3] deals with Streptococcus pneumoniae (ATCC6305). The experiment in a line: Microtitre plate assay, IC90 determination, SPN 6305. The settings on record: 90% inhibitory concentration for bacterial growth, resazurin. On the procedure: as §1, §2, §3
For orientation: Alamar Blue is a resazurin reagent that responds to reducing activity.

The mark [4] stands for this setting: ATCC607, 48 h, read-out: M. smegmatis IC90 (μg/ml), 90% inhibitory concentration for bacterial growth, Alamar Blue fluorescence.
The mark [5] stands for this setting: Staphylococcus aureus, ATCC29213, read-out: IC90 (μg/ml) STA 29213.
Where [6] appears, read: Streptococcus pneumoniae, ATCC6305, read-out: IC90 (μg/ml) SPN 6305, Streptococcus pneumoniae ATCC6305.
Setting [7] is: ATCC607, 90% inhibitory concentration for bacterial growth, 48 hours, Alamar Blue fluorescence, read-out: M. smegmatis IC90.
[8] abbreviates: Staphylococcus aureus ATCC29213, 90% inhibitory concentration for bacterial growth, resazurin, read-out: IC90 (μg/ml) STA 29213.
Setting [9] is: Streptococcus pneumoniae ATCC6305, read-out: IC90 (μg/ml) SPN 6305.

Converted amounts (≈) assume the structure as drawn. Where two headings read alike, the source gives them in different places.

Turning to `CSc1nc2ccc(Br)cc2cc1/C(=C(/CCN(C)C)c1ccccc1)c1ccccc1` [Compound 2], the IC90 is 1.59 µg/mL (≈ 3.16 µM) in assay [1] (setting [4]), 7.98 µg/mL (≈ 15.8 µM) in assay [2] (setting [5]) and 1.59 µg/mL (≈ 3.16 µM) in assay [3] (setting [6]).
With `CSc1nc2ccc(Br)cc2cc1/C(=C(\CCN(C)C)c1ccccc1)c1ccccc1` [Compound 3], the values for the IC90 in assay [1] (setting [4]), in assay [2] (setting [5]) and in assay [3] (setting [6]) were 2 µg/mL (≈ 3.97 µM), 7.98 µg/mL (≈ 15.8 µM) and 1.59 µg/mL (≈ 3.16 µM), respectively.
For the compound `CSc1nc2ccc(Br)cc2cc1C(/C(=C/CN(C)C)c1ccccc1)c1ccccc1` (stereo not shown) [Compound 4], the IC90 turned out to be 7.98 µg/mL (≈ 15.8 µM) in assay [1] (setting [4]), 40 µg/mL (≈ 79.4 µM) in assay [2] (setting [5]) and 17.9 µg/mL (≈ 35.5 µM) in assay [3] (setting [6]).
With `COc1nc2ccc(Br)cc2cc1C(/C(=C/Cc1ccccc1)CCN(C)C)c1ccccc1` (stereo not shown) [Compound 7], the IC90 was determined as 1.63 µg/mL (≈ 3.16 µM) in assay [1] (setting [7]), 1.63 µg/mL (≈ 3.16 µM) in assay [2] (setting [8]) and 2.05 µg/mL (≈ 3.98 µM) in assay [3] (setting [9]).
For `COc1nc2ccc(Br)cc2cc1/C(=C(\C)CCN(C)C)c1ccccc1` [Compound 15], the IC90 was found to be 1.35 µg/mL (≈ 3.17 µM) in assay [1] (setting [7]), 33.8 µg/mL (≈ 79.4 µM) in assay [2] (setting [8]) and 6.74 µg/mL (≈ 15.8 µM) in assay [3] (setting [9]).
Take `COc1nc2ccc(Br)cc2cc1C(/C(=C\CN(C)C)c1ccsc1)c1ccccc1` (stereo not shown) [Compound 16]: the IC90 in assay [1] (setting [7]) turned out to be 1.75 µg/mL (≈ 3.55 µM); in assay [2] (setting [8]), 7.82 µg/mL (≈ 15.8 µM); in assay [3] (setting [9]), 1.56 µg/mL (≈ 3.16 µM).
Take `COc1nc2ccc(Br)cc2cc1/C(=C(/CCN(C)C)c1ccsc1)c1ccccc1` [Compound 18]: the figures for the IC90 in assay [1] (setting [7]), in assay [2] (setting [8]) and in assay [3] (setting [9]) were 9.85 µg/mL (≈ 20 µM), 17.5 µg/mL (≈ 35.5 µM) and 8.78 µg/mL (≈ 17.8 µM), respectively.
Regarding `Clc1ccc(/C(=C(\CCCCN2CCCCC2)c2ccccc2)c2cnc3ccccc3c2)cc1` [Compound 19], the IC90 in assay [1] (setting [4]) stood at 1.52 µg/mL (≈ 3.16 µM).
Regarding `CSc1nc2ccc(-c3ccccc3)cc2cc1C(/C(=C/CN(C)C)c1ccccc1)c1ccccc1` (stereo not shown) [Compound 20], the IC90 in assay [1] (setting [4]) amounted to 1.41 µg/mL (≈ 2.82 µM); in assay [2] (setting [5]), 1.58 µg/mL (≈ 3.16 µM); in assay [3] (setting [6]) it was 1.41 µg/mL (≈ 2.82 µM).
With `Clc1ccc(/C(CCCCN2CCCCC2)=C(/c2ccccc2)c2cnc3ccccc3c2)cc1` [Compound 50], the results for the IC90 in assay [1] (setting [4]) and in assay [3] (setting [6]) were 1.92 µg/mL (≈ 3.99 µM) and 9.6 µg/mL (≈ 20 µM), respectively.
`COc1ccc(/C(CCCCN2CCCCC2)=C(/c2ccc(C#N)cc2)c2cnc3ccccc3c2)cc1` [Compound 56]: the IC90 was found to be 7.95 µg/mL (≈ 15.8 µM) in assay [1] (setting [7]) and 12.6 µg/mL (≈ 25.1 µM) in assay [3] (setting [9]).
As to `COc1ccc(/C(=C(\CCCCN2CCCCC2)c2ccccc2)c2cnc3ccccc3c2)cc1` [Compound 57], the IC90 in assay [1] (setting [4]) came to 7.55 µg/mL (≈ 15.8 µM); in assay [3] (setting [6]), 9.51 µg/mL (≈ 20 µM).
As to `COc1ccc(/C(CCCCN2CCCCC2)=C(/c2ccc(OC)cc2)c2cnc3ccccc3c2)cc1` [Compound 59], the IC90 in assay [1] (setting [7]) is 8.03 µg/mL (≈ 15.8 µM); in assay [3] (setting [9]), 11.3 µg/mL (≈ 22.4 µM).
Take `COc1nc2ccc(Br)cc2cc1C(/C(=C\CCCN1CCCN(C)CC1)c1ccc2ccccc2c1)c1ccccc1` (stereo not shown) [Compound 62]: the IC90 in assay [1] (setting [7]) came to 8.97 µg/mL (≈ 14.1 µM); in assay [2] (setting [8]), 22.5 µg/mL (≈ 35.5 µM).
Regarding `COc1nc2ccc(Br)cc2cc1C(/C(=C/CCCN1CCCN(C)CC1)c1ccc2ccccc2c1)c1ccccc1` (stereo not shown) [Compound 63], the IC90 came to 3.57 µg/mL (≈ 5.63 µM) in assay [1] (setting [7]) and 2.25 µg/mL (≈ 3.55 µM) in assay [2] (setting [8]).

Source of the values: US20100069366A1, “ANTIBACTERIAL QUINOLINE DERIVATIVES” (JANSSEN-CILAG, priority 2006, published 2010).
